Values after ≈ are worked out from the molar mass of the structure shown.

One data set in a line: Cytotoxicity assay. The format is cell-based. As to conditions: human. The procedure: HepG2, HEK293 or A549 cells (2×10^5 cells per well) were seeded in 24-well, flat-bottomed plates. Culturing of cells, incubations, and OD measurements were performed as described previously (Int. J. Cancer 2007, 121, 206-210). Twenty-four hours after seeding the cells, the incubation was started by the addition of test compound in a final DMSO concentration of 1%. The living cell mass was determined after 48 h. At least two independent measurements were performed for each compound.

A further data set has as its system P. aeruginosa PA-14. Nature of the data set: MIC determination assay / antibacterial activity. It is filed as cell-based. The note with it: Pseudomonas aeruginosa, PA14. The protocol: Assays regarding the determination of the minimum inhibitory concentration (MIC) were performed as described previously (Elgaher W A M, Fruth M, Groh M, Haupenthal J, Hartmann R W. Expanding the scaffold for bacterial RNA polymerase inhibitors: design, synthesis and structure-activity relationships of ureido-heterocyclic-carboxylic acids. RSC Adv. 2013 Dec. 3; 4(5):2177-94). The experiments were based on the P. aeruginosa strain PA14. For the case that no MIC value could be determined due to activity reasons, percentage (%) inhibition at 100 μM (or lower, depending on the solubility of the compounds) was calculated. The OD600 was measured 0 and 16 h after inhibitor addition in a CLARIOstar Platereader (BMG Labtech, Ortenberg, Germany).

A further data set deals with ADAM-17 (TACE) (Homo sapiens (Human), UniProt P78536). Nature of the data set: ADAM-17 (TACE) inhibitor screening assay. It is filed as biochemical. As to conditions: read-out: Selectivity IC50 TACE. The procedure: The ADAM-17 (TACE) Inhibitor Screening Assay Kit was purchased from Sigma-Aldrich. The assay was performed according to the guidelines of the manufacturer using ilomastat as a positive control. Fluorescence signals were measured in a CLARIOstar plate reader (BMG Labtech).

The next data set concerns the target MMP2 (Homo sapiens (Human), UniProt P08253). Nature of the data set: Selectivity assay: inhibition of MMPs. It is filed as biochemical. The procedure: (§1) MMPs-1, -2, -3, -7, -8 and -14 along with the SensoLyte 520 Generic MMP Activity Kit*Fluorimetric* were purchased from AnaSpec (Fremont, CA, USA). The assay was performed as described previously (Schönauer E, Kany A M, Haupenthal J, Hüsecken K, Hoppe I J, Voos K, et al. Discovery of a Potent Inhibitor Class with High Selectivity toward Clostridial Collagenases. J Am Chem Soc. 2017 Sep. 13; 139(36):12696-703) using batimastat as a positive control according to the guidelines of the manufacturer.

The next data set concerns the target MMP3 (Homo sapiens (Human), UniProt P08254). Nature of the data set: Selectivity assay: inhibition of MMPs. It is filed as biochemical. The protocol: as §1
A further data set has as its target MMP1 (Homo sapiens (Human), UniProt P03956). In words: Selectivity assay: inhibition of MMPs. The format is biochemical. The procedure: as §1
A further data set deals with HDAC8 (Homo sapiens (Human), UniProt Q9BY41). Nature of the data set: HDAC inhibition. The format is biochemical. The note with it: read-out: Selectivity IC50 HDAC8. The procedure:
(§2) HDAC3 and HDAC8 Inhibitor Screening Assay kits were purchased from Sigma-Aldrich. The assay was performed according to the guidelines of the manufacturer using trichostatin as a positive control. Fluorescence signals were measured in a CLARIOstar plate reader (BMG Labtech).

Another data set deals with HDAC3 (Homo sapiens (Human), UniProt O15379). In words: HDAC inhibition. It is filed as biochemical. As to conditions: read-out: Selectivity IC50 HDAC3. The procedure: as §2
A further data set is described as follows: in vitro. It is filed as in vitro ADME. The note with it: mouse, s9. The protocol: For the evaluation of combined phase I and phase II metabolic stability, the compound (1 μM) was incubated with 1 mg/mL pooled liver S9 fraction (Xenotech), 2 mM NADPH, 1 mM UDPGA, 10 mM MgCl2, 5 mM GSH and 0.1 mM PAPS at 37° C. for 0, 5, 15, 30 and 60 min. The metabolic stability of Testosterone (1 μM), verapamil (1 μM) and ketoconazol (1 μM) were determined in parallel to confirm the enzymatic activity of the S9 fraction. The incubation was stopped by precipitation of S9 enzymes with 2 volumes of cold acetonitrile containing internal standard (150 nM Diphenhydramine). Samples were stored on ice for 10 min and precipitated protein was removed by centrifugation (15 min, 4° C., 4,000 rpm). The remaining test compound at different time points was analyzed by LC-MS/MS (TSQ Quantum Access MAX, Thermo Fisher, Dreieich, Germany) and used to determine half-life (t½).

A further data set deals with LasB (Pseudomonas aeruginosa (strain ATCC 15692 / DSM 22644 / CIP 104116 / JCM 14847 / LMG 12228 / 1C / PRS 101 / PAO1), UniProt P14756). In words: In vitro LasB activity assay (fluorogenic substrate). The format is biochemical. As to conditions: LasB 0.3 nM, substrate 150 μM, mean ± SD. The protocol:
The LasB activity assay was performed as described previously (Nishino N, Powers J C. Pseudomonas aeruginosa elastase. Development of a new substrate, inhibitors, and an affinity ligand. J Biol Chem. 1980 Apr. 25; 255(8):3482-6) using the fluorogenic substrate 2-Aminobenzoyl-L-Alanyl-Glycyl-L-Leucyl-L-Alanyl-para-Nitro-Benzyl-Amide, purchased from Peptides International (Louisville, KY, USA) and vivitide, LLC (Gardner, MA, USA).
Fluorescence intensity was measured for 60 min at 37° C. in black 384-well microtiter plates (Greiner BioOne, Kremsmünster, Austria) using a CLARIOstar microplate reader (BMG Labtech, Ortenberg, Germany) with an excitation wavelength of […] and an emission wavelength of 415±20 nm. The assay was performed in a final volume of 50 μL of assay buffer (50 mM Tris, pH 7.2, 2.5 mM CaCl2), 0.075% Pluronic F-127, 5% DMSO) containing LasB at a final concentration of […] 0.3 nM and the substrate at 150 μM. Before substrate addition, compounds were preincubated with the enzyme at 37° C. for 15 min. Experiments were performed in duplicates and repeated for at least two times. Blank controls without enzyme were performed. After blank subtraction, the slope of samples containing inhibitors (v) was divided by the slope of a simultaneously started uninhibited enzymatic reaction (v0). IC50 values were determined with nonlinear regression using GraphPad Prism 5 (Graph Pad Software, San Diego, CA, USA) and are given as mean values ±standard deviation (SD). The slope factor was constrained to 1.

Data set [1] is described as follows: Kinetic turbidimetric solubility assay. The format is physicochemical. The note with it: PBS. The procedure: The desired compounds were sequentially diluted in DMSO in a 96-well plate. 1.5 μL of each well were transferred into another 96-well plate and mixed with 148.5 μL of PBS. Plates were shaken for 5 min at 600 rpm at room temperature, and the absorbance at 620 nm was measured. Absorbance values were normalized by blank subtraction and plotted using GraphPad Prism 8.4.2 (GraphPad Software, San Diego, CA, USA). Solubility (S) was determined based on the First X value of AUC function using a threshold of 0.005.

Setting [2] is: aqueous buffer, kinetic from dmso stock.

Chain of LasB (P14756 198-498): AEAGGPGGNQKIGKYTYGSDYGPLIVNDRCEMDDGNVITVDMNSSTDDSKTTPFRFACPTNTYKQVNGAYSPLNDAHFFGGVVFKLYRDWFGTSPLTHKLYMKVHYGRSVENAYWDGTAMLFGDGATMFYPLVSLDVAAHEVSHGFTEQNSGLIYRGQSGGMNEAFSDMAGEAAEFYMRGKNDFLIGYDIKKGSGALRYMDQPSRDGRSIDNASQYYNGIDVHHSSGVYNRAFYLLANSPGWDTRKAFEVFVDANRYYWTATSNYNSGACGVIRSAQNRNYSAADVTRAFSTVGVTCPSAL
Chain of MMP1 (P03956 100-469): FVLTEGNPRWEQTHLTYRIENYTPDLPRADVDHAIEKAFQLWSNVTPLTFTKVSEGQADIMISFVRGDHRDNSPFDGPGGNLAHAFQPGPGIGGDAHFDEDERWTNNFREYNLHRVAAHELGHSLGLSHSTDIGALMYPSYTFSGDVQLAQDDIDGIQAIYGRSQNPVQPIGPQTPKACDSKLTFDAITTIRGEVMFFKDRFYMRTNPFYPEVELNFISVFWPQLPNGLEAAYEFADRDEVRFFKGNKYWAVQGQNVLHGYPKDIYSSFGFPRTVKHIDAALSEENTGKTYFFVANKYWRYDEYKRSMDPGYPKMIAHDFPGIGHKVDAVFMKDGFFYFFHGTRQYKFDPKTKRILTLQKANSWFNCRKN
Chain of HDAC3 (O15379 whole entry, looked up): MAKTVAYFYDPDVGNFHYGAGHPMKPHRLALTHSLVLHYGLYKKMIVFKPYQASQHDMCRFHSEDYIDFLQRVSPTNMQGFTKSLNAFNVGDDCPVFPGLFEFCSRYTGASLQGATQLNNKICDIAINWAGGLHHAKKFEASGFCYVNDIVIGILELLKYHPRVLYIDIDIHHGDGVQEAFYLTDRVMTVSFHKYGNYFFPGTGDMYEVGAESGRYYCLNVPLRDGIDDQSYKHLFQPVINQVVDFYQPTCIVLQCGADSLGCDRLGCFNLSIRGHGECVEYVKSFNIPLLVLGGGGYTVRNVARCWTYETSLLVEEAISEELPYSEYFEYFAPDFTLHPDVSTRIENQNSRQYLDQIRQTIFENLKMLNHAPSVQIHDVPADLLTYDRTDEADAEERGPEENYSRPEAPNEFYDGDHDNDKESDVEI
Chain of HDAC3 (Q9Y618 whole entry partner, looked up): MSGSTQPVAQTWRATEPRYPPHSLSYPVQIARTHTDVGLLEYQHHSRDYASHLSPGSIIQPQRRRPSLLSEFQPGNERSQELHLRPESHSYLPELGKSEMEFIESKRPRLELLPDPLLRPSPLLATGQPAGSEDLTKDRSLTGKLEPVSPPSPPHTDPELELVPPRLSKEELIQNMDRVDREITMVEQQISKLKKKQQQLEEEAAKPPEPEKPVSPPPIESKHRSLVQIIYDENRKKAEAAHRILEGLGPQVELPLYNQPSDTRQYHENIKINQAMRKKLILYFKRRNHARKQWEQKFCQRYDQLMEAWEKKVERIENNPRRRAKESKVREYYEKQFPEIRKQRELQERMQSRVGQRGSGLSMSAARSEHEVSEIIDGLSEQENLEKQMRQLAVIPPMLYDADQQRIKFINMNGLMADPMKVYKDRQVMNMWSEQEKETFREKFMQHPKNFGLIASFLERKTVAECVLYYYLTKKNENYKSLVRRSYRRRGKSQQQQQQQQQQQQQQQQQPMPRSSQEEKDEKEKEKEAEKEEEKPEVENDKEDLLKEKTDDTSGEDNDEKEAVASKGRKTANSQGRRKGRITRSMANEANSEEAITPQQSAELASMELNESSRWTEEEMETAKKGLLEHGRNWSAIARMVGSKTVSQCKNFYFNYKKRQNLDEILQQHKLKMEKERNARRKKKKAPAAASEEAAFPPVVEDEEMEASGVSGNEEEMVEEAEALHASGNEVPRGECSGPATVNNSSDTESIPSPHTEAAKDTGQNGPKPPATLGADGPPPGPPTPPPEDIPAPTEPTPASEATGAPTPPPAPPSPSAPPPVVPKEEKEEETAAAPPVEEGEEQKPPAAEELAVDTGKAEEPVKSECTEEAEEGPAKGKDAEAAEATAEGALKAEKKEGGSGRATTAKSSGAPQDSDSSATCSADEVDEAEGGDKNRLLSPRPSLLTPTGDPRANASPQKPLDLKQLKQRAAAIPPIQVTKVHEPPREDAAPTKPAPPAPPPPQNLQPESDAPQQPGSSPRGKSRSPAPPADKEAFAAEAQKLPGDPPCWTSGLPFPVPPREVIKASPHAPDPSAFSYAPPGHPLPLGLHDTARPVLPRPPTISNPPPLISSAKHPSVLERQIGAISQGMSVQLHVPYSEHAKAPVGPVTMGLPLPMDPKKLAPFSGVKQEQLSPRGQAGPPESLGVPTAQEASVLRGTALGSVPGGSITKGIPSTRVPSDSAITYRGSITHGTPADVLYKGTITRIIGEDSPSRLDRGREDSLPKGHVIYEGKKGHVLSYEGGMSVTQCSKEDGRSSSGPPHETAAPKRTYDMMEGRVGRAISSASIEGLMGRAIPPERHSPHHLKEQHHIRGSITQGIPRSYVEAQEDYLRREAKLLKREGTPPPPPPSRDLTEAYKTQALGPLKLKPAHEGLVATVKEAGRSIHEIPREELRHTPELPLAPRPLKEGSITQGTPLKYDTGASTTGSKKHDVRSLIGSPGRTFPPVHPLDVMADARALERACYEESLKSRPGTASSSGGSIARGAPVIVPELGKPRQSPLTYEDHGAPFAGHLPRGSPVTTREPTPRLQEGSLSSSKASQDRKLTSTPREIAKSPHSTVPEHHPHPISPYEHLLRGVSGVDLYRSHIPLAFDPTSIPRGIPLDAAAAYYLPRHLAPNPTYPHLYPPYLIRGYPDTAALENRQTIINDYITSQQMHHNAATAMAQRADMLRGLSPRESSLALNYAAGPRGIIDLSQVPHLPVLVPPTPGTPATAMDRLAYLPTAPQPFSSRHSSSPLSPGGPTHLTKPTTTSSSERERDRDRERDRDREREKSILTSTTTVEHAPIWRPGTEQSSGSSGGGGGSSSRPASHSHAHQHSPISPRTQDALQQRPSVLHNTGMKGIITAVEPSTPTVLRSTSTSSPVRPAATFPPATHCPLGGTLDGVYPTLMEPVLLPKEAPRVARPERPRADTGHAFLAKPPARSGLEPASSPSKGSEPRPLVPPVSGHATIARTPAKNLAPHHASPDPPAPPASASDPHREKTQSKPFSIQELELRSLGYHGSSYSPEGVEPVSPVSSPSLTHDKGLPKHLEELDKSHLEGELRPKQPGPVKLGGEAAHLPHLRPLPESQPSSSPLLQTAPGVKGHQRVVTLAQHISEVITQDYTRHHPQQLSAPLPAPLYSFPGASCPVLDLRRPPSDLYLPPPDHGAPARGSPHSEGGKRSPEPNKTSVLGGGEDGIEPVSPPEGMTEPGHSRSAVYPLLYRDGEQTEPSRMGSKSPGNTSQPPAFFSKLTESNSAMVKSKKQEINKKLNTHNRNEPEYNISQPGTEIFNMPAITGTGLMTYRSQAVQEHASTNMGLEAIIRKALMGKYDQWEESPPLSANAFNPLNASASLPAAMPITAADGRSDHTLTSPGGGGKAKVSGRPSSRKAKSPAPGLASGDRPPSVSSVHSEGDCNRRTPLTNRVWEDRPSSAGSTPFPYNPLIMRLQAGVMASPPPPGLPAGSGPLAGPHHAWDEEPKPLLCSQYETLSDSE
Chain of ADAM-17 (TACE) (P78536 whole entry, looked up): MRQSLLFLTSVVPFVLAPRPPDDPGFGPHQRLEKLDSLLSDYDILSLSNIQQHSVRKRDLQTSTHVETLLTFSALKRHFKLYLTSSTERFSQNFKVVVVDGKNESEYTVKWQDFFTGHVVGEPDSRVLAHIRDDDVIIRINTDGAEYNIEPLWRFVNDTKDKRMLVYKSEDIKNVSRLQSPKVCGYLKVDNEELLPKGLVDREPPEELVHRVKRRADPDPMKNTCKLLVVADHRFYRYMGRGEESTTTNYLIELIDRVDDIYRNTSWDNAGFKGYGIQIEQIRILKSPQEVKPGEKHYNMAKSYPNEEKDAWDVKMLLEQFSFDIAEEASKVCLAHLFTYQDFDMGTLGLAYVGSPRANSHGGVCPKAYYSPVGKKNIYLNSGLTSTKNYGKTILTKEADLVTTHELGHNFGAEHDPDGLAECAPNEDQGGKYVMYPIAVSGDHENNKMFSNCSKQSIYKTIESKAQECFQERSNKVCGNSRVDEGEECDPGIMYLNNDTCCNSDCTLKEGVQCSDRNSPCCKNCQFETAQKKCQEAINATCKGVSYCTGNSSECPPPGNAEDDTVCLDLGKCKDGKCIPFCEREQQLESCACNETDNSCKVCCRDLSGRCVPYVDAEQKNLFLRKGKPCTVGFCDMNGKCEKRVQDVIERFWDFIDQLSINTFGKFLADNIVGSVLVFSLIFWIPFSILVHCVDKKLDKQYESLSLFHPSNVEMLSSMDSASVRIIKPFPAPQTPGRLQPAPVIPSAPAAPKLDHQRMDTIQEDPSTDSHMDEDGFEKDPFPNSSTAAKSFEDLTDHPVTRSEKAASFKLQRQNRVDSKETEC
Chain of HDAC8 (Q9BY41 whole entry): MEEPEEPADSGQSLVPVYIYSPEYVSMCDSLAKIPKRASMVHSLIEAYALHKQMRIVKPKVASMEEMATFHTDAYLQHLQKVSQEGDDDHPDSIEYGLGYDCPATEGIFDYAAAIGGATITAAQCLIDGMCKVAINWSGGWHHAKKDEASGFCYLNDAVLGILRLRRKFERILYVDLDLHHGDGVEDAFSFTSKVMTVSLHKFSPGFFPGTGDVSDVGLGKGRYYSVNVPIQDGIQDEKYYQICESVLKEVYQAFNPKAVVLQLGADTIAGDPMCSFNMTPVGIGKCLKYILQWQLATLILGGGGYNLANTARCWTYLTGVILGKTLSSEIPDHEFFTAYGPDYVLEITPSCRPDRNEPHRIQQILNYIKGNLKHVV

For the compound `CC(C)CC(C(=O)NO)C(=O)Nc1ccc(Cn2cc(CNS(=O)(=O)c3ccc(I)cc3)nn2)cc1` (stereo not drawn) [Hit L1, 2-(Hydroxycarbamoyl)-N-[4-[[4-[[(4-iodophenyl)sulfonylamino]methyl]triazol-1-yl]methyl]phenyl]-4-methyl-pentanamide], the IC50 at 48 h in the data set “Cytotoxicity assay” (A549 cells), in “Cytotoxicity assay” (HEK293 cells) and in “Cytotoxicity assay” (HepG2 cells) was more than 100 µM throughout. The IC50 with P. aeruginosa PA-14, on ADAM-17 (TACE), against MMP2, at MMP3, at MMP1 and at HDAC8 was more than 100 µM throughout. Moreover, the IC50 (usually the midpoint of a concentration-inhibition curve) at HDAC3 was more than 100 µM; against LasB, 0.0024 ± 0.0001 µM. Moreover, the half-life (commonly how long it takes for the measured level to halve) at 1 μM in “in vitro” is 30.1 ± 1.5 min. The solubility (usually the concentration that dissolves in the medium under given conditions) at 5 min in [1] stood at 142 µM (≈ 89 µg/mL); in [1] (setting [2]), 106 ± 19 µM (≈ 66.4 µg/mL).
Turning to `CC(C)CC(C(=O)NO)C(=O)Nc1ccc(Cn2cc(CNS(=O)(=O)c3ccc(F)cc3)nn2)cc1` (stereo not drawn) [Compound 160, N-[4-[[4-[[(4-Fluorophenyl)sulfonylamino]methyl]triazol-1-yl]methyl]phenyl]-2-(hydroxycarbamoyl)-4-methyl-pentanamide], the IC50 at 48 h in “Cytotoxicity assay” (A549 cells), in “Cytotoxicity assay” (HEK293 cells) and in the data set “Cytotoxicity assay” (HepG2 cells) was more than 100 µM in each case. Moreover, the IC50 with P. aeruginosa PA-14, on ADAM-17 (TACE), against MMP2, against MMP3, against MMP1 and at HDAC8 was more than 100 µM throughout. Also, the IC50 is more than 100 µM on HDAC3 and 0.0038 ± 0.0001 µM against LasB. Besides, the half-life at 1 μM in “in vitro” is 65.5 ± 0.7 min. In addition, the solubility at 5 min in data set [1] (setting [2]) is more than 200 µM.

Source of the values: patent US20250170104A1, “INHIBITORS OF PSEUDOMONAS AERUGINOSA VIRULENCE FACTOR Lasß” (priority 2022, published 2025).
